One block for each compound: values may come before it.
Assays:
[1] = tested on: microfluidic devices seeded with human liver cells; experiment: Albumin secretion, microfluidic devices seeded with human liver cells; assay type: cell-based
From the text: Prior to cell seeding, microfluidic devices, in this case S-1 Chips (Emulate, Inc. Boston, Mass., USA), were functionalized using Emulate's proprietary protocols and reagents (ERT™), including those described herein. After surface functionalization, both channels of the microfluidic device were coated with species-specific extracellular matrices (ECM). For the human bound microfluidic device, a mixture of collagen type I (Corning, Corning, N.Y., USA) and fibronectin, e.g. bovine, (Gibco) was used; for the rat bound microfluidic devices a mixture of collagen type IV, e.g. human placenta, (Sigma-Aldrich, St. Louis, Mo., USA) and fibronectin (Gibco) was used; for the dog bound microfluidic devices a mixture of collagen I (Corning), collagen type IV (Sigma-Aldrich), and fibronectin (Gibco) was used. […] For the dual-cell culture model (hepatocytes and endothelial cells), the LSECs were seeded at a concentration of 2-4 million cells/mL in the lower vascular channel. […] After cell seeding, the upper channel of the microfluidic device was maintained in William's E Medium (WEM) containing Glutamax (Gibco), ITS+(Corning), dexamethasone (Sigma-Aldrich), ascorbic acid (Sigma-Aldrich), fetal bovine serum (FBS) (Sigma-Aldrich), and Penicillin/Streptomycin (Sigma-Aldrich). The vascular channel of the microfluidic device was maintained with species-specific endothelial media (Emulate, Inc.). Two days after seeding, the microfluidic devices were connected to the Human Emulation System™ (Emulate, Inc.), as described in part herein, and both of the microfluidic device channels were perfused at 30 μL/hr to provide a continuous supply of fresh media for the duration of the experiments. Albumin secretion from the upper channel was quantified using ELISA kits for human, rat, and dog models effluent samples (human and rat: Abcam; dog: Immunology Consultants Laboratory, Inc., Portland, Oreg., USA) and the assays were performed according to the protocol provided by each vendor.

[2] = tested on: microfluidic devices seeded with human liver cells; experiment: ROS levels (CellROX) in human chips; assay type: cell-based; conditions: TAK-875, up to 15 days
[3] = target: T1, MRP2 (Homo sapiens, UniProt Q92887); experiment: Biliary efflux of MRP2 substrate CDFDA in human chips; assay type: cell-based; conditions: TAK-875 3, 10, 30 μM, up to 15 days
T1 construct: Primary rat, dog or human hepatocytes were cultured in the upper parenchymal channel; endogenous in cells; host or cells: primary human hepatocytes in a microfluidic Liver-Chip
T1 sequence (Q92887 whole entry): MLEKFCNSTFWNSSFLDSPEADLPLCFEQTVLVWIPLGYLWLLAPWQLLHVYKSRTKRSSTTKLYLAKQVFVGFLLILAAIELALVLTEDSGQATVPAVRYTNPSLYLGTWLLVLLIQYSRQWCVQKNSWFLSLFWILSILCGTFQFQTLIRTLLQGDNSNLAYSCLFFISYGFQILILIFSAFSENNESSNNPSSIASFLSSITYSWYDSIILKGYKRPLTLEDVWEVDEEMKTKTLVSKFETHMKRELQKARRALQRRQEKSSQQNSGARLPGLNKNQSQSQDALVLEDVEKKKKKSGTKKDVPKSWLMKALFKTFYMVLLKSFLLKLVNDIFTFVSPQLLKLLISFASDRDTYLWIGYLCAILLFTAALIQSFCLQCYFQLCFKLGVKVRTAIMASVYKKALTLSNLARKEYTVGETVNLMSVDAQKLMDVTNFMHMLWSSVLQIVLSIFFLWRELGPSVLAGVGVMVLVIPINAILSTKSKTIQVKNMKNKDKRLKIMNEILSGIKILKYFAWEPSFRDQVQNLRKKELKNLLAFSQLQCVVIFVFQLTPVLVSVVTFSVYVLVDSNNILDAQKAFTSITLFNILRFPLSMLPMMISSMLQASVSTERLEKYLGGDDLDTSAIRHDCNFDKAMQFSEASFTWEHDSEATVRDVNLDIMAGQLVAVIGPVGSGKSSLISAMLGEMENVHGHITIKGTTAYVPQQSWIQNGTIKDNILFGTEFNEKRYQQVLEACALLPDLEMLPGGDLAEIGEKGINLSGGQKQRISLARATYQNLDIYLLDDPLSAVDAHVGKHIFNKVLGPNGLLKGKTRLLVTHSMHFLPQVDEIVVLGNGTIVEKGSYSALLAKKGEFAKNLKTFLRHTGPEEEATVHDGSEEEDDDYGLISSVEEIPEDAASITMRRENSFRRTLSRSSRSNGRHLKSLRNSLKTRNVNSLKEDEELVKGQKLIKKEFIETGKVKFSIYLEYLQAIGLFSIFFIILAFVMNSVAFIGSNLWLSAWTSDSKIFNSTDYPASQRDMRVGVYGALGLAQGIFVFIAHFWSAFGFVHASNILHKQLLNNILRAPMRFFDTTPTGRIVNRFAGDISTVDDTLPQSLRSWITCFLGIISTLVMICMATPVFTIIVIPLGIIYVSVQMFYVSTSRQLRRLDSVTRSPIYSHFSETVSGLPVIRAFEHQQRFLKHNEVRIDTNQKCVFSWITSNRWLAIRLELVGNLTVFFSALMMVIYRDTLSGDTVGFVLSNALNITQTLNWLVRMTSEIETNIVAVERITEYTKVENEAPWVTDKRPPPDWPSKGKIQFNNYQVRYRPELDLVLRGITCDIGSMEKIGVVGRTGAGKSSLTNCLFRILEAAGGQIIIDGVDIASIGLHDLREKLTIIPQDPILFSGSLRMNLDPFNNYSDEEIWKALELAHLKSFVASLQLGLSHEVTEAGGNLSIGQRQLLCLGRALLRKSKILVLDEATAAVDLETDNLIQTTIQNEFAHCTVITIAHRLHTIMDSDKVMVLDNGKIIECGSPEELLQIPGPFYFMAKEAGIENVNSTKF

[4] = tested on: stellate cells; experiment: Stellate cell activation (alpha-SMA) in human chips; assay type: cell-based
Experimental: Microfluidic devices seeded with liver cells and static sandwich plate cultures were fixed with 4% paraformaldehyde for 15 minutes at room temperature, washed with PBS, and permeabilized (saponin 1% with 10% serum in PBS). Blocking and incubation with the primary antibodies (overnight in PBS containing 1% BSA or PBS containing 10% serum and 1% BSA) was followed by a two-hour incubation with secondary antibodies (Cell Signaling, Danvers, Mass., USA) in the same blocking buffer. Immunostaining was performed with specific primary antibodies (anti-MRP2, anti-stabilin-1, anti-BSEP, anti-α-SMA, anti-CD68; Abcam, Cambridge, Mass., USA) and images were acquired with either an Olympus fluorescence microscope (IX83) or Zeiss confocal microscope (AxiovertZ1 LSM880).
The number of CD68- or α-SMA-positive cells in the vascular channel in each group was counted in each field of view ([…]) and quantified.
The fluorescent channel (588) was first background subtracted and processed using the median filter of Image J. After processing, the signal was thresholded using adaptive thresholding function of Image J (Otsu method) to extract fluorescent regions and to measure the relative intensity of the fluorescent signal. N=4 to 6 FOVs per microfluidic device from each microfluidic device were analyzed. […]

[5] = cited from earlier work
[6] = tested on: microfluidic devices seeded with human liver cells; experiment: DILI biomarker release (alpha-GST, miR-122, keratin 18) from human chips; assay type: cell-based
From the text: Exemplary Biomarker, e.g. DILI: Keratin 18 levels were quantified in human model effluent samples from both the hepatocyte and vascular channels using the M65 EpiDeath CK18 ELISA Kit (DiaPharma, Detroit, Mich., USA). The assay was run following the vendor protocol using a standard curve ranging from 0-5,000 U/L. Additionally, a standard curve ranging from 0-500 U/L was generated independently for quality control.
Exemplary Biomarker, e.g. DILI: Alpha Glutathione S-Transferase (α-GST) levels were quantified in human model effluent samples from the upper channel using an ELISA kit (DiaPharma). The assay was run following the vendor protocol using a standard curve ranging from 0-64 μg/L. Additionally, a standard curve ranging from 0-50 μg/L was generated independently for quality control.
Exemplary Biomarker, e.g. DILI: Mir-122: Isolation of micro-RNAs was performed on upper and lower chamber eluates using Qiagen's (Hilden, Germany) miRNA isolation kit for serum and plasma. A total volume of 50 μL was used for isolation. Isolation was performed according to manufacturer's protocol using a 56.5 pM oligonucleotide spike-in control. Samples were eluted with 14 μL RNase-free water. Reverse transcription was performed using Thermo Fisher Scientific's TaqMan™ MicroRNA Reverse Transcription Kit according to the manufacturer's protocol. A total reaction volume of 15 μL was used. Real-time PCR was performed using Thermo Fisher Scientific's TaqMan™ Micro-RNA Assays according to manufacturer's protocol. A total reaction volume of 10 μl was used. Normalized rrCt was used for fold-change analysis.

[7] = tested on: microfluidic devices seeded with human liver cells; experiment: Cytokine release (IL-6, MCP-1, IP-10) from the vascular channel of human chips; assay type: cell-based; conditions: for IL-6 release / MCP-1 release: 14 days; for release of cytokines/chemokines including IP-10: treated chips
Experimental: Cytokines: Release of IL-6, MCP-1, and IP-10 from the vascular channel was quantified using U-PLEX biomarker human assays (Meso Scale Diagnostics, Rockville, Md., USA) and the assays were performed according to the protocol provided by the vendor.

[8] = tested on: microfluidic devices seeded with human liver cells; experiment: Mitochondrial membrane potential (TMRM) in human chips; assay type: cell-based; conditions: TAK-875 3, 10, 30 μM, 8 or 15 days
From the text: (§1) Microfluidic devices seeded with liver cells were stained in the upper channel with 5(6)-Carboxy-2′,7′-dichlorofluorescein diacetate (CDFDA) (ThermoFisher) to visualize bile canaliculi and MRP2 activity, cholyl-lysyl-fluorescein (CLF) (Corning) to visualize bile canaliculi and BSEP activity, Nile red (ThermoFisher) or AdipoRed (Lonza) to visualize lipid droplet accumulation, Tetramethylrhodamine, methyl ester (TMRM) (ThermoFisher) to visualize active mitochondria, and CellROX® (ThermoFisher) to visualize cellular oxidative stress. Each staining solution was prepared in blank medium or compound dosing medium and added to the upper channel, incubated for 15 minutes at 37° C., and washed three times with medium. The stained microfluidic devices were imaged using a specific filter, and were de-blurred with Olympus cellSens software. Using ImageJ-Fiji, the fluorescent channel images were histogram adjusted to remove background, followed by fluorescence quantification using the Integrated Density calculation function.

[9] = tested on: microfluidic devices seeded with human liver cells; experiment: Lipid accumulation (Nile red / AdipoRed) in human chips; assay type: cell-based
From the text: as §1
(§2) The stained microfluidic devices were imaged using the TRITC filter, and were de-blurred with Olympus cellSens software. Using ImageJ-Fiji, the fluorescent channel images were histogram adjusted to remove background, followed by fluorescence quantification using the Integrated Density calculation function. N=5 FOVs per microfluidic device were analyzed for conditions: vehicle (0.1% DMSO), FIAU dosing groups, and MTX dosing groups.

[10] = tested on: microfluidic devices seeded with rat liver cells; experiment: Lipid accumulation (Nile red) in rat chips; assay type: cell-based; conditions: rat chips, 1, 10, 30 μM, 10 days
From the text: as §1, with “The stained microfluidic devices were imaged using a specific filter, and were de-blurred with Olympus cellSens software.” left out
as §2

[11] = tested on: microfluidic devices seeded with rat liver cells; experiment: Albumin secretion / hepatocyte function, microfluidic devices seeded with rat liver cells; assay type: cell-based; conditions: rat quadruple-cell chips, 1, 10, 30 μM
From the text: Prior to cell seeding, microfluidic devices, in this case S-1 Chips (Emulate, Inc. Boston, Mass., USA), were functionalized using Emulate's proprietary protocols and reagents (ERT™), including those described herein. After surface functionalization, both channels of the microfluidic device were coated with species-specific extracellular matrices (ECM). For the human bound microfluidic device, a mixture of collagen type I (Corning, Corning, N.Y., USA) and fibronectin, e.g. bovine, (Gibco) was used; for the rat bound microfluidic devices a mixture of collagen type IV, e.g. human placenta, (Sigma-Aldrich, St. Louis, Mo., USA) and fibronectin (Gibco) was used; for the dog bound microfluidic devices a mixture of collagen I (Corning), collagen type IV (Sigma-Aldrich), and fibronectin (Gibco) was used. […] For the dual-cell culture model (hepatocytes and endothelial cells), the LSECs were seeded at a concentration of 2-4 million cells/mL in the lower vascular channel. […] Albumin secretion from the upper channel was quantified using ELISA kits for human, rat, and dog models effluent samples (human and rat: Abcam; dog: Immunology Consultants Laboratory, Inc., Portland, Oreg., USA) and the assays were performed according to the protocol provided by each vendor.

[12] = tested on: hepatocytes in microfluidic devices seeded with human liver cells; experiment: Hepatocyte morphology (bright-field) in human chips; assay type: cell-based; conditions: quadruple-cell human chips, daily administration 7 days

albumin production ([1]; 30 μM, 14 days, human chips): decreased
formation of ROS [2]: increase
biliary efflux of the MRP2 substrate CDFDA [3]: dose-dependent decrease
% aSMA positive area from the vascular channel ([4]; 10 or 30 uM for 15 days, human Liver-Chips): Not significant
IL-6 release ([7]; 10 μM): significant release
MCP-1 release ([7]; 10 μM): significant release
IL-6 release ([7]; 30 μM (highest dose)): not observed
MCP-1 release ([7]; 30 μM (highest dose)): not observed
lipid droplet accumulation (AdipoRed) ([9]; end of the 2-week treatment): detected
SMILES: Cc1cc(OCCCS(C)(=O)=O)cc(C)c1-c1cccc(COc2ccc3c(c2)OC[C@H]3CC(=O)O)c1 [TAK-875]
incidence of treatment-related elevations in transaminases (>3-fold rise in upper limit of normal) ([5]; Phase III trials): 2.7%
release of K18 ([6]; 30 μM, 14 days): increased release
markers of hepatocyte function or necrosis (albumin and K18) ([6]; accompanying mitochondrial perturbations, human chips): minimal changes
mitochondrial membrane potential, TMRM distribution [8]: dose-related and time-dependent redistribution

SMILES: O=c1[nH]c(=O)n([C@@H]2O[C@H](CO)[C@@H](O)[C@@H]2F)cc1I [FIAU, fialuridine]
concentrations with dose-dependent decline in albumin secretion ([1]; quadruple-cell human chips, daily FIAU 1, 10, 30 μM): ≥ 1000 nM
patients with liver failure and death ([5]; Phase II clinical trials): 5/15
keratin 18 (K-18) (liver injury marker) ([6]; FIAU 1, 10, 30 μM, 10 days): release
miR122 (liver injury marker) ([6]; FIAU 1, 10, 30 μM, 10 days): release
α-GST (liver injury marker) ([6]; FIAU 1, 10, 30 μM, 10 days): release
lipid accumulation [10]: no effects
release of cytokines/chemokines including IP-10 [7]: observed
hepatocyte function [11]: no effects
lipid accumulation (Nile red) ([9]; daily 1, 10, 30 μM for 10 days, human chips): dose-dependent increase

albumin synthesis / secretion ([1]; quadruple-cell human chips, 7 days): no abnormalities
hepatocyte morphology [12]: no abnormalities
stellate cell activation, expression of α-SMA ([4]; daily 1, 10, 30 μM for 7 days): increased expression
IP-10 ([7]; MTX 1, 10, 30 μM, vascular channel, 1 day (FIG. 8C)): increases
release of cytokines/chemokines including IP-10 [7]: observed
SMILES: CN(Cc1cnc2nc(N)nc(N)c2n1)c1ccc(C(=O)N[C@@H](CCC(=O)O)C(=O)O)cc1 [MTX, Methotrexate]
maximal plasma concentration at which liver injury occurs in humans ([5]; some patient populations): ~1 µM
lipid accumulation (Nile red) ([9]; daily 1, 10, 30 μM for 7 days): microscopic evidence of lipid accumulation

Reference: US20210340572A1, “HIGH-CONTENT IMAGING OF MICROFLUIDIC DEVICES” (EMULATE, Inc., priority 2019, published 2021)
